In US7345065B2, “Methods and compositions for alleviating pain” (Allergan, Inc., priority 2002, dated 2008):

Key:
[1] = test system: α-2B heterozygous (−/+) and homozygous (−/−) knockout mice; test: Sulprostone sensitized pain (allodynia), α-2B knockout mice; assay type: in vivo, mouse; settings: intraperitoneal; heterozygous and homozygous α-2B knockout; clonidine 500 ug/kg, Compound 3 100 ug/kg
Chung model rats = test: Chung rat nerve ligation model, tactile allodynia reversal (Von Frey); assay type: in vivo
Protocol: The Chung rat nerve ligation model is a well accepted model of peripheral neuropathic pain. In the Chung model, partial ligation of left spinal nerves L-5 and L-6 produces a long-lasting hypersensitivity to light touch on the affected left foot. The hypersensitivity is similar to pain experienced by humans with the neuropathic condition of causalgia (Kim and Chung, Pain 50:355-363 (1992)).
Chung rat surgeries of about 20 minutes duration were performed essentially as follows. Male Sprague-Dawley rats weighing 100 to 120 grams were anesthetized with isofluorane. After shaving and preparing the surgical site with betadine, an incision was made from thoracic vertebra XIII down toward the sacrum, and muscle separated from spinal vertebra (left side) at the L4-S2 levels. The L6 vertebra were located, and the transverse process carefully removed with a small rongeur to visually identify the L4-L6 spinal nerves. L5 and L6 spinal nerves were isolated and tightly ligated with 6-0 silk thread; the wound was sutured after complete hemostasis was confirmed. A small amount of antibiotic ointment was applied to the incised area before transferring the animals to a plastic recovery cage under a regulated heat-temperature lamp. Animals were not treated with any topical or local anesthetics post-operatively.
Assessment of pain in Chung model rats was performed by applying a light tactile stimulus (Von Frey hair) to the affected surgical paw as follows. A 50% pain threshold was established by applying the Von Frey hair in an up-and-down manner to the plantar surface of the surgical paw with just enough force to bend them. A positive response was recorded if the paw was withdrawn sharply. The 50% paw withdrawal threshold was determined using the method of Dixon et al., Ann. Rev. Pharmacol. Toxicol. 20:441-462 (1980). The post-drug threshold was compared to the pre-drug threshold, and the precent reversal of tactile sensitivity calculated based on a normal threshold of 15.1 grams. The results were expressed as % allodynia reversal, reflecting the percentage reversal of pain threshold relative to a normal rat (100%).
Chung surgeries were performed, and pain assessed as described above. Drugs administered via osmotic minipump were delivered as follows. ALZET (Cupertino, Calif.) minipumps (Model #1007D) were implanted subcutaneously on the rats' back between the shoulder blades. Pumps were filled with test solution prior to surgery, which was performed with aseptic procedures and sterilized surgical instruments. After anesthetization with isoflorane and midline incision between the shoulder blades through the muscle, a subcutaneous pocket was exposed. The minipump was inserted into the exposed pocket, before stapling the wounds closed and allowing animals to recover under a warming light.
ALZET osmotic minipumps (model 1007D) hold a total volume of 100 μl and delivered drug at the set rat of 0.5 μl per hour the indicated time period. Drugs were administered at the indicated rate, typically 100 μg/hr/kg, dissolved in 50% DMSO, with the concentration of drug in the pump varied depending on animal weight. […]

[2] = Plasma concentration by LC-MS/MS during and after minipump dosing; assay type: in vivo, rat; settings: 0.1 mg/kg/hour minipump for seven days
Protocol: To determine whether the persistent reversal of allodynia was due to the continued presence of drug in the animals, rats were treated for seven days using a subcutaneous osmotic minipump with 0.1 mg/kg/hour Compound 8. Plasma concentrations of Compound 8 were sampled on days 3, 6, 8, 10 and 14 following pump insertion and determined by liquid chromatography-mass spectrometry/mass spectrometry (LC-MS/MS).

Bennett model rats = test: Bennett partial sciatic nerve ligation model, cold allodynia; assay type: in vivo, rat; settings: osmotic minipump 0.1 mg/hr/kg for four days; during treatment and more than three weeks following pump removal
Protocol: The α-2B/C selective agonist Compound 8 was tested in a second rat nerve injury model of neuropathic pain, the Bennett partial sciatic nerve ligation model. This rat model produces a peripheral mononeuropathy with disorders of pain sensation similar to those seen in man (Bennett and Xie, Pain 33:87-107 (1988)). In the Bennett model, nerve injury is created by loosely tying constrictive ligatures around the sciatic nerve, causing degeneration of nerve distal to the constriction. Allodynia and hyperalgesia are produced by the constriction injury in addition to spontaneous pain (Bennett and Xie, supra, 1988). In particular, cold allodynia, the sensation of pain from cold stimuli, is one manifestation of altered pain sensation: Bennett model animals frequently lift the paw of the surgical limb off the cold surface, in contrast to control animals.
Bennett surgeries of about 20 minute duration were performed as follows. […]
Chronic drug administration was achieved via an osmotic minipump, which was implanted subcutaneously on the back of the rat one week after the Bennett surgery as described above. […] To assess response to thermal stimuli, rats were placed under a clear plastic chamber (18 cm×29 cm×12.5 cm) on a chilled (0-4° C.) metal floor, which is not noxious to a normal animal, and the time that the surgical paw was raised off of the cold floor recorded over a 5 minute period. […]

[3] = test system: Sprague Dawley rats, normal and sensitized; test: Rat model of irritable bowel syndrome (chronic visceral hypersensitivity), EMG response to colorectal distension; assay type: in vivo
From the text: A well-accepted model of chronic visceral hypersensitivity is described in Al-Chaer et al., Gastroenterology 119:1276-85 (2000). In brief, colons of neonatal male Sprague Dawley rats were sensitized by repeated inflation of a colonic balloon on postnatal days 8 to 21, with colonic balloons inflated to pressures ranging from 20-80 mm Hg. Three months later, the abdominal withdrawal reflex (AWR) response of the adult rats to graded colorectal distension (CRD) was quantified by electromyography (EMG) recording from the abdominal wall muscle. […] Each level of CRD was administered for 20 seconds every four minutes and repeated for a total of five times.
Groups of 8-10 normal and sensitized adult Sprague Dawley rats (approximately 3 months old) were implanted with subcutaneous minipumps to deliver either 50% DMSO or Compound 8 in 50% DMSO at a dose of 100 ug/kg/hr over a period of 7 days. The abdominal withdrawal reflex to a graded series of colorectal distensions (20, 40, 60, 80 mm Hg) was measured by abdominal EMG recording prior to pump implantation, on days 2 and 5 of the subcutaneous infusion, and 2 days, 1 week, 2 weeks, and 4 weeks after the pumps were removed.

rat α-2B (RNG gene) = target: T1, rat α-2B (RNG gene) (Rattus norvegicus, UniProt P19328); test: RSAT assay, α-2B receptor; assay type: cell-based
T1 construct: expressed in transfected cells; host or cells: NIH-3T3
T1 sequence (P19328 1-453): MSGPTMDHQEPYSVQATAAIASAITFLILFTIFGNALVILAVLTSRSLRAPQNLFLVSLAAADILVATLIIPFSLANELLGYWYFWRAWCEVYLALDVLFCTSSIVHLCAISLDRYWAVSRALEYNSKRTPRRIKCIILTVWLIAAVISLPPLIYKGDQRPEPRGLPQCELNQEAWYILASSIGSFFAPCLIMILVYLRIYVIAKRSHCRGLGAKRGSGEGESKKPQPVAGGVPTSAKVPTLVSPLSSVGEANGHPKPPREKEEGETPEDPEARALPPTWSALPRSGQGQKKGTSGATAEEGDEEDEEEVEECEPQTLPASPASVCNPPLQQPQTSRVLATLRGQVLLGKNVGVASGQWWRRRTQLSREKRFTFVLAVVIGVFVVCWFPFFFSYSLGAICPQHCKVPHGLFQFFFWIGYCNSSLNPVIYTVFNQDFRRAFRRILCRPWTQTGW
From the text: Agonist and antagonist activity, including selectivity and specificity, can be characterized using any of a variety of routine assays, including, without limitation, Receptor Selection and Amplification Technology (RSAT) assays (Messier et al., Pharmacol. Toxicol. 76:308-11 (1995); Conklin et al., Nature 363:274-6 (1993)); cyclic AMP assays (Shimizu et al., J. Neurochem. 16:1609-1619 (1969)); and cytosensor microphysiometry assays (Neve et al., J. Biol. Chem. 267:25748-25753 (1992)). Such assays generally are performed using cells that naturally express only a single α-adrenergic receptor subtype, or using transfected cells expressing a single recombinant α-adrenergic receptor subtype. The adrenergic receptor can be a human receptor or homolog thereof having a similar pharmacology. As disclosed herein, RSAT assays were performed using cells transiently transfected with human α-2A (c10 gene); rat α-2B (RNG gene); human α-2C (c4 gene); bovine α-1A; hamster α-1B; and rat α-1D.
The RSAT assay measures receptor-mediated loss of contact inhibition resulting in selective proliferation of receptor-containing cells in a mixed population of confluent cells. The increase in cell number is assessed with an appropriate detectable marker gene such as β-galactosidase, if desired, in a high throughput or ultra high throughput assay format. Receptors that activate the G protein, Gq, elicit the proliferative response. α-adrenergic receptors, which normally couple to Gi, activate the RSAT response when coexpressed with a hybrid Gq protein containing a Gi receptor recognition domain, designated Gq/i5.
As an example, an RSAT assay can be performed essentially as follows. NIH-3T3 cells are plated at a density of 2×10^6 cells in 15 cm dishes and maintained in Dulbecco's modified Eagle's medium supplemented with 10% calf serum. One day later, cells are cotransfected by calcium phosphate precipitation with mammalian expression plasmids encoding p-SV-β-galactosidase (5-10 μg), receptor (1-2 μg) and G protein (1-2 μg). Carrier DNA, for example 40 μg salmon sperm DNA, also can be included to increase transfection efficiency. Fresh media is added on the following day; one to two days later, cells are harvested and frozen in 50 assay aliquots. Transfected cells are thawed, and 100 μl of cells added to 100 μl aliquots of compound to be tested, with various concentrations assayed in triplicate, for example, in 96-well plates. Incubation continues for 72 to 96 hours at 37°. After washing with phosphate-buffered saline, β-galactosidase activity is determined by adding 200 μl of chromogenic substrate (3.5 mM O-nitrophenyl-β-D-galactopyranoside/0.5% NP-40 in phosphate buffered saline), incubating overnight at 30°, and measuring optical density at 420 nm. The absorbancy is a measure of enzyme activity, which depends on cell number and reflects receptor-mediated cell proliferation. The EC50 and maximal effect (efficacy) of each drug at each receptor is determined.

α-2A = target: T2, α-2A (Homo sapiens, UniProt P08913); test: Ki at α-2A; assay type: binding
T2 sequence (P08913 1-465): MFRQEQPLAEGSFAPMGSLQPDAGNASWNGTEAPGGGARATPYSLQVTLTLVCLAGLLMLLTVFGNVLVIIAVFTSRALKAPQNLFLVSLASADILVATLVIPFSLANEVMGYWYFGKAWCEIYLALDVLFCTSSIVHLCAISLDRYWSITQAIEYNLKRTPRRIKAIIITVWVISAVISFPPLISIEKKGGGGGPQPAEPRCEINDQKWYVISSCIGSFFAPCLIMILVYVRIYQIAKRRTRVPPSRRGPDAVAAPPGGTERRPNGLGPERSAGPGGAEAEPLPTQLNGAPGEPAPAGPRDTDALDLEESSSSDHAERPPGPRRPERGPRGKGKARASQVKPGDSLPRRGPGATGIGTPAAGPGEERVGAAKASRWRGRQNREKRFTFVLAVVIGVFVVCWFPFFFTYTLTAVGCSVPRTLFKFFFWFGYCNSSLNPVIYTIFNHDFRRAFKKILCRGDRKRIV

[4] = subcutaneous osmotic minipump 0.1 mg/kg/hour, seven days

SMILES | analgesic effect in α-2B knockout mice [1] | allodynia during follow-up testing (Chung model rats; after oral 0.3 mg/kg three times a day for three days) | allodynia on the morning of day 4 (Chung model rats; oral 0.3 mg/kg three times a day for three days) | allodynia prior to the first dose of the morning, days 2 and 3 (Chung model rats; oral 0.3 mg/kg three times a day for three days, about 14 hours after the last dose) | reversal of allodynia (Chung model rats; oral gavage, three doses of 0.3 mg/kg per day for three consecutive days) | allodynia alleviated during the period of drug treatment (Chung model rats; [4]) | persistence of analgesic effects after treatment (Chung model rats; [4]) | plasma drug level, day 10 ([2]; day 10 following pump insertion) | plasma drug level, day 14 ([2]; day 14 following pump insertion) | cold allodynia (Bennett model rats) | EMG response, non-sensitized control rats ([3]; 100 ug/kg/hr subcutaneous minipump, 7 days) | pain (EMG intensity) in sensitized rats after treatment ([3]; 100 ug/kg/hr subcutaneous minipump, 7 days, CRD 20-80 mm Hg) | increased EMG response in sensitized rats ([3]; 100 ug/kg/hr subcutaneous minipump, 7 days, during and following treatment) | return of colorectal allodynia and hyperalgesia ([3]; 4 weeks following cessation of drug treatment) | efficacy at α-2B relative to brimonidine (rat α-2B (RNG gene)) | Ki (α-2A) [nM]
OCCNC(=S)NCc1cccc(Cl)c1F [Compound 8] | failed to show analgesic activity | allodynia did not increase during a more than three week period of follow-up testing | allodynia was dramatically reduced | complete tactile allodynia | 70-80% | 90-100% | continued for over a month after treatment was concluded | minimal drug levels were detected | no drug remained in the plasma | completely alleviated | did not change significantly from pre-treatment levels | 0 to 1.5 | completely alleviated | did not return during the time period tested |  | 
c1nc(CC2CCc3sccc3C2)c[nH]1 (stereo not shown) [Compound 13] |  |  |  |  |  |  |  |  |  |  |  |  |  |  | about 40% | ~0.08
